Laboratory results reported in patent publication US8329862B1, “Cell-killing peptide derived from the C-terminus of NOXA protein” (Chosun University, priority 2004, dated 2012).
No end group written: not given here.

Key:
Type in all cases: cell-based
[1] = system: HeLa cell, a cervical cancer cell line; test: Cell-killing effect on HeLa cells, crystal violet staining of attached living cells; settings: for cell-killing activity: procedure of Example 2, crystal violet; for cell-killing activity compared with CKP peptide: procedure of Example 2, FIG. 6
Protocol: In order to examine the cell-killing effect of CKP peptide synthesized in Example 1, HeLa cell, a cervical cancer cell line was adopted and cultivated. The culture medium was replaced with experimental media containing CKP peptide solution in 0, 1, 5, 10, 15, 20, 30, 40 μM of concentration serially and cultivated for more 24 hours. In order to observe living cells attached on the surface, the resulting cells were stained for 10 minutes by using 100 μl of 0.5% crystal violet and then, washed out by using distilled water and running water to be de-stained, while discarding cells floating on the culture medium. Then, cells were observed by photography after placing culture vessel under a fluorescent lamp box as depicted in FIG. 3. At this moment, living cells attached on the surface appeared blue color since they were stained by crystal violet.

[2] = system: HeLa cell, a cervical cancer cell line; test: as above; settings: pan-caspase inhibitor z-VAD-fmk in culture media, FIG. 11
HeLa cell lines = test: Time-lapse video capture microscopy of HeLa cell death; settings: for morphology of dead HeLa cells: CKP at 23 minutes and 20 seconds, TRAIL at 5 hours and 30 minutes, FIG. 8
Protocol: In order to analyze the action mode of CKP peptide of the present invention, several substances that are known to kill cells were adopted to compare the cell-killing effects. Above all, CKP peptide (10 μM), TRAIL (100 ng/ml) and Cisplatin (100 μg/ml) were treated to HeLa cell lines and observed under time-lapse video capture microscopy (Leica, Model: DMIRBE, Germany) in some time-interval (for CKP peptide, 20 seconds; TRAIL, 40 seconds; Cisplatin, 3 minutes) for 1 hour and 40 minutes, 3 hours and 30 minutes, 8 hours and 48 hours respectively. Then, the results were photographed to 40× by using FW4000 software. FIG. 7 depicts HeLa cells serially at each time interval. As a result, it is observed that the cell death caused by TRAIL started at about 1 hour and 30 minutes after treatment and reached the maximum level at about 8 hours. To the contrary, HeLa cell started to die at about 10 minutes after treating CKP peptide and most of HeLa cells have died even at 23 minutes and 20 seconds.

[3] = system: HeLa cell, a cervical cancer cell line; test: Relative survival ratio of HeLa cells, counted from time-lapse microscopy; settings: 1 hour
Protocol: In order to measure the strength of CKP peptide, several substances that are known to kill cells were adopted to compare the cell-killing effects. HeLa cell, a cervical cancer cell line was cultivated and treated with CKP peptide, TRAIL and Cisplatin to 30 μM, 100 ng/ml and 100 μg/ml respectively for 1 hour. After that, the resulting cells were observed under time-lapse video capture microscopy (Leica, Model: DMI RBE, Germany) in 20 seconds of time-interval for 1 hour by the procedure described in Example 5, photographed to 40×, counted for the numbers of living cells and dead cells and then, estimated the relative survival ratio in a graph. […] As a consequence, it is clarified that CKP peptide of the present invention had the strongest cell-killing effect about 9-fold more than TRAIL or Cisplatin.

Bid(mt)BH3CKP: fusion protein combining CKP peptide with mutant BidBH3 deleting the active site of BH3 domain, SEQ ID NO: 13 (RRRRRRRRGNIARHLAQVADSMDRRQKLLNLISKLF; Fusion protein)
cell-killing activity [1]: had the cell-killing activity

BidBH3CKP: fusion protein that combines CKP peptide with BidBH3 peptide, SEQ ID NO: 12 (RRRRRRRRGNIARHLAQVGDSMDRRQKLLNLISKLF; Fusion protein)
difference of cell-killing activity with or without z-VAD-fmk [2]: not significant difference | cell-killing activity relative to BidBH3 peptide ([1]; procedure of Example 2): 2 fold

CKP 2: SEQ ID NO: 5 (RRRRRRRRGRQKALNLISKLF), substituted in one residue (fusion protein)
cell-killing activity compared with CKP peptide [1]: decreased the cell-killing activity slightly

CKP 3: SEQ ID NO: 6 (RRRRRRRRGRQKLAALISKLF), substituted in two residues (fusion protein)
cell-killing activity compared with CKP peptide [1]: decreased the cell-killing activity slightly

CKP 4: SEQ ID NO: 7 (RRRRRRRRGRQKLLNLIAALF), substituted in two residues (fusion protein)
cell-killing activity compared with CKP peptide [1]: outstanding rather than CKP peptide

CKP 5: SEQ ID NO: 8 (RRRRRRRRGRQKALNLIAALF), substituted in three residues (fusion protein)
cell-killing activity compared with CKP peptide [1]: decreased the cell-killing activity slightly

CKP 6: SEQ ID NO: 9 (RRRRRRRRGRQKAANLISKLF), 2nd and 3rd leucines substituted to alanine (Fusion protein)
cell-killing activity compared with CKP peptide [1]: decreased the cell-killing activity remarkably

CKP 7: SEQ ID NO: 10 (RRRRRRRRGRQKLLNAISKLF), 5th leucine substituted to alanine (Fusion protein)
cell-killing activity compared with CKP peptide [1]: decreased the cell-killing activity remarkably

CKP 8: SEQ ID NO: 11 (RRRRRRRRGRQKLLNLISKAF), 9th leucine substituted to alanine (Fusion protein)
cell-killing activity compared with CKP peptide [1]: decreased the cell-killing activity remarkably

PTD domain without CKP domain: only PTD domain without CKP domain, synthesized as in Example 1 (RRRRRRRRG; protein transduction domain) [reference compound]
cell-killing activity [1]: not detected at all

RRRRRRRRGRQKLLNLISKLF [CKP peptide]
morphology of dead HeLa cells (HeLa cell lines): several cell membranes like balloon | time at which HeLa cells started to die after treatment (HeLa cell lines; CKP peptide 10 μM): about 10 minutes | cell-killing effect relative to TRAIL or Cisplatin [3]: about 9 fold | concentration from which cell-killing activity is seen ([1]; 0-40 μM, 24 hours, crystal violet, FIG. 3): ≥ 10 µM | cell-killing activity [1]: became strong remarkably

B1: TRAIL (protein, UniProt P50591 1-281, looked up)
Tumor necrosis factor ligand …: MAMMEVQGGPSLGQTCVLIVIFTVLLQSLCVAVTYVYFTNELKQMQDKYSKSGIACFLKEDDSYWDPNDEESMNSPCWQVKWQLRQLVRKMILRTSEETISTVQEKQQNISPLVRERGPQRVAAHITGTRGRSNTLSSPNSKNEKALGRKINSWESSRSGHSFLSNLHLRNGELVIHEKGFYYIYSQTYFRFQEEIKENTKNDKQMVQYIYKYTSYPDPILLMKSARNSCWSKDAEYGLYSIYQGGIFELKENDRIFVSVTNEHLIDMDHEASFFGAFLVG
notes: substance known to kill cells, used as comparator
morphology of dead HeLa cells (HeLa cell lines): not to have cell membrane like balloon | time at which cell death reached the maximum level (HeLa cell lines; TRAIL 100 ng/ml): about 8 hours
